# Data: patent US7579356B2, “Thia-tetraazaacenaphthylene kinase inhibitors” (Janssen Pharmaceutica NV, priority 2005, dated 2009)
# Target: T1, EGFR (Homo sapiens, UniProt P00533)
# T1 construct: The intracellular portion of EGFR started at nucleotide 2189 (corresponding to amino acid 667) and ended at the termination codon; made in house; host or cells: Sf9 insect cells (baculovirus)
# Experiment: EGFR Kinase Assay
# Type: biochemical
# Conditions: GST-EGFR, ATP 5 μM
# From the text: The EGFR kinase used was a fusion of Glutathione-S-Transferase (GST) and a PCR amplified intracellular portion of EGFR (Accession Number NM_005228). The intracellular portion of EGFR started at nucleotide 2189 (corresponding to amino acid 667) and ended at the termination codon. The portion was PCR amplified with primers that added the lambda attB sequences to each end, recombined into an entry vector, then into a GST destination vector (as described in Gateway Technologies Manual by Invitrogen Corporation, Carlsbad, Calif.).
# The destination vector was recombined in the DH10BAC strain of bacteria to produce a bacmid. The bacmid was transfected into Sf 9 cells and the supernatant containing the baculovirus was collected. The GSTEGFR protein was purified using large cultures of Sf 9 cells infected with stock virus. After an appropriate period of time, the cells were collected and lysed. The GSTEGFR was then purified from the lysate on Glutathione-Sepharose columns (as described by Amersham Biosciences, Buckinghamshire, United Kingdom).
# The EGFR substrate was prepared by biotinylating polyGluTyr (128 mg) (Sigma, St. Louis, Mo.) in a 1×PBS buffer incubated together with a 12-fold molar excess of Sulfo-NHS-LC-Biotin on ice for at least 2 hrs. The free biotin was separated from the biotinylated polyGluTyr on a gel filtration column.
# A mixture of a 10× kinase buffer (500 mM Tris at pH 8.0, 100 mM Magnesium Chloride and 1 mM Sodium Vanadate), DTT (1 mM final from 500 mM stock), ATP (5 μM final from 10 mM stock), biotinylated polyGluTyr (10 μg/μL stock), γ-^33P ATP (10 μCl/μL stock) and water was added to each well (for a total of 90 μL/well) of a Streptavidin Flashplate (Perkin Elmer, Wellesley, Mass.).
# Test compound in 100% DMSO (2 μL) was added to the appropriate wells. Diluted GSTEGFR (1:300 dilution in 50 mM Tris at pH 8.0 and 0.1% bovine serum albumin) (10 μL) was added to the wells to initiate the reactions.
# The plates were incubated at 30° C. for 1 hr with shaking. The reacted contents were removed and the plates were sequentially washed three times with a 1×PBS stop buffer (300 μL without Magnesium and Calcium) and 100 mM EDTA. After the final wash, the same stop buffer (200 μL) was added to the wells. The plates were then sealed and read on the TopCount scintillation counter.
# Test compounds were assayed in triplicate at 16 concentrations at half-log dilutions starting at 200 uM. A maximum and minimum signal for the assay was determined on each plate. The percent inhibition of a test compound was calculated according to the formula: […]
# For a series of test concentrations, the IC50 was derived by graphing percent inhibition against the log of the concentrations tested for a given compound. For those compounds without an IC50, the inhibition values in percent are shown at a test concentration of 2 μM. For compounds with multiple values, each value represents a separate assay result.
row,Compound,IC50
1,"4-oxo-5-(4-phenoxy-phenyl)-4,5-dihydro-3H-1-thia-3,5,6,8-tetraaza-acenaphthylene-2-carboxylic acid (4-morpholin-4-ylmethyl-3-trifluoromethoxy-phenyl)-amide [Cpd 240]",31 nM
2,"COc1ccc(NC(=O)c2sc3ncnc4c3c2NC(=O)N4c2ccc(F)c(Cl)c2)cc1OC [Cpd 2, 5-(3-chloro-4-fluoro-phenyl)-4-oxo-4,5-dihydro-3H-1-thia-3,5,6,8-tetraaza-acenaphthylene-2-carboxylic acid (3,4-dimethoxy-phenyl)-amide]",37 nM
3,"O=C(Nc1nccs1)c1sc2ncnc3c2c1NC(=O)N3c1ccc(F)c(Cl)c1 [Cpd 4, 5-(3-chloro-4-fluoro-phenyl)-4-oxo-4,5-dihydro-3H-1-thia-3,5,6,8-tetraaza-acenaphthylene-2-carboxylic acid thiazol-2-ylamide]",72 nM
4,"O=C(Nc1cccnc1)c1sc2ncnc3c2c1NC(=O)N3c1ccc(F)c(Cl)c1 [Cpd 5, 5-(3-chloro-4-fluoro-phenyl)-4-oxo-4,5-dihydro-3H-1-thia-3,5,6,8-tetraaza-acenaphthylene-2-carboxylic acid pyridin-3-ylamide]",69 nM
5,"O=C(Nc1ccc(NCCCN2CCOCC2)nc1)c1sc2ncnc3c2c1NC(=O)N3c1ccc(F)c(Cl)c1 [Cpd 6, 5-(3-chloro-4-fluoro-phenyl)-4-oxo-4,5-dihydro-3H-1-thia-3,5,6,8-tetraaza-acenaphthylene-2-carboxylic acid [6-(3-morpholin-4-yl-propylamino)-pyridin-3-yl]-amide]",83 nM
6,"O=C1Nc2c(-c3ccccc3)sc3ncnc(c23)N1c1ccc(F)c(Cl)c1 [Cpd 8, 5-(3-chloro-4-fluoro-phenyl)-2-phenyl-3H,5H-1-thia-3,5,6,8-tetraaza-acenaphthylen-4-one]",542 nM
7,"O=C(Nc1ccc(CNC[C@H]2CCCO2)cc1)c1sc2ncnc3c2c1NC(=O)N3c1ccc(F)c(Cl)c1 [Cpd 17, 5-(3-chloro-4-fluoro-phenyl)-4-oxo-4,5-dihydro-3H-1-thia-3,5,6,8-tetraaza-acenaphthylene-2-carboxylic acid [4-({[(2R)-tetrahydro-furan-2-ylmethyl]-amino}-methyl)-phenyl]-amide]",44 nM
8,"COc1cc(NC(=O)c2sc3ncnc4c3c2NC(=O)N4c2ccc(F)c(Cl)c2)ccc1O [Cpd 19, 5-(3-chloro-4-fluoro-phenyl)-4-oxo-4,5-dihydro-3H-1-thia-3,5,6,8-tetraaza-acenaphthylene-2-carboxylic acid (4-hydroxy-3-methoxy-phenyl)-amide]",43 nM
9,"COc1cc(NC(=O)c2sc3ncnc4c3c2NC(=O)N4c2ccc(F)c(Cl)c2)ccc1OCCN1CCOCC1 [Cpd 20, 5-(3-chloro-4-fluoro-phenyl)-4-oxo-4,5-dihydro-3H-1-thia-3,5,6,8-tetraaza-acenaphthylene-2-carboxylic acid [3-methoxy-4-(2-morpholin-4-yl-ethoxy)-phenyl]-amide]",30 nM
10,"COc1cc(NC(=O)c2sc3ncnc4c3c2NC(=O)N4c2ccc(F)c(Cl)c2)ccc1OCCCN1CCCCC1 [Cpd 21, 5-(3-chloro-4-fluoro-phenyl)-4-oxo-4,5-dihydro-3H-1-thia-3,5,6,8-tetraaza-acenaphthylene-2-carboxylic acid [3-methoxy-4-(3-piperidin-1-yl-propoxy)-phenyl]-amide]",27 nM
11,"COc1cc(NC(=O)c2sc3ncnc4c3c2NC(=O)N4c2ccc(F)c(Cl)c2)ccc1OCCC1CCNCC1 [Cpd 22, 5-(3-chloro-4-fluoro-phenyl)-4-oxo-4,5-dihydro-3H-1-thia-3,5,6,8-tetraaza-acenaphthylene-2-carboxylic acid [3-methoxy-4-(2-piperidin-4-yl-ethoxy)-phenyl]-amide]",42 nM
12,"NCc1ccc(NC(=O)c2sc3ncnc4c3c2NC(=O)N4c2ccc(F)c(Cl)c2)cn1 [Cpd 23, 5-(3-chloro-4-fluoro-phenyl)-4-oxo-4,5-dihydro-3H-1-thia-3,5,6,8-tetraaza-acenaphthylene-2-carboxylic acid (6-aminomethyl-pyridin-3-yl)-amide]",27 nM
13,"C#Cc1cccc(N2C(=O)Nc3c(C(=O)Nc4ccc(CNC5CCNCC5)cc4)sc4ncnc2c34)c1 [Cpd 24, 5-(3-ethynyl-phenyl)-4-oxo-4,5-dihydro-3H-1-thia-3,5,6,8-tetraaza-acenaphthylene-2-carboxylic acid [4-(piperidin-4-ylaminomethyl)-phenyl]-amide]",126 nM
14,"COc1cc(N2C(=O)Nc3c(C(=O)Nc4ccc(CN5CCCCC5)cc4)sc4ncnc2c34)c(Cl)c(OC)c1OC [Cpd 26, 5-(2-chloro-3,4,5-trimethoxy-phenyl)-4-oxo-4,5-dihydro-3H-1-thia-3,5,6,8-tetraaza-acenaphthylene-2-carboxylic acid (4-piperidin-1-ylmethyl-phenyl)-amide]",9260 nM
15,"COc1cc(NC(=O)c2sc3ncnc4c3c2NC(=O)N4c2cc(OC)c(OC)c(OC)c2)ccc1OCCN1CCOCC1 [Cpd 27, 4-oxo-5-(3,4,5-trimethoxy-phenyl)-4,5-dihydro-3H-1-thia-3,5,6,8-tetraaza-acenaphthylene-2-carboxylic acid [3-methoxy-4-(2-morpholin-4-yl-ethoxy)-phenyl]-amide]",41500 nM
16,"O=C1Nc2c([N+](=O)[O-])sc3ncnc(c23)N1c1ccc(F)c(Cl)c1 [Cpd 156, 5-(3-chloro-4-fluoro-phenyl)-2-nitro-3H,5H-1-thia-3,5,6,8-tetraaza-acenaphthylen-4-one]",1370 nM
17,"Nc1sc2ncnc3c2c1NC(=O)N3c1ccc(F)c(Cl)c1 [Cpd 157, 2-amino-5-(3-chloro-4-fluoro-phenyl)-3H,5H-1-thia-3,5,6,8-tetraaza-acenaphthylen-4-one]",371 nM
18,"COc1ccc(CC(=O)Nc2sc3ncnc4c3c2NC(=O)N4c2ccc(F)c(Cl)c2)cc1OC [Cpd 158, N-[5-(3-chloro-4-fluoro-phenyl)-4-oxo-4,5-dihydro-3H-1-thia-3,5,6,8-tetraaza-acenaphthylen-2-yl]-2-(3,4-dimethoxy-phenyl)-acetamide]",2430 nM
19,"COc1ccc(C(=O)Nc2sc3ncnc4c3c2NC(=O)N4c2ccc(F)c(Cl)c2)cc1OC [Cpd 159, N-[5-(3-chloro-4-fluoro-phenyl)-4-oxo-4,5-dihydro-3H-1-thia-3,5,6,8-tetraaza-acenaphthylen-2-yl]-3,4-dimethoxy-benzamide]",1040 nM

# Same assay, conditions: test concentration of 2 μM; compounds without an IC50; read-out: EGFR inhibition in percent
row,Compound,inhibition at 2 µM
1,"COc1cc(N2C(=O)Nc3c(C(=O)Nc4ccc(CN5CCCCC5)cc4)sc4ncnc2c34)cc(OC)c1OC [Cpd 28, 5-(3,4,5-trimethoxy-phenyl)-4-oxo-4,5-dihydro-3H-1-thia-3,5,6,8-tetraaza-acenaphthylene-2-carboxylic acid (4-piperidin-1-ylmethyl-phenyl)-amide]",15%

# Target: T2, HER-2 (Homo sapiens, UniProt P04626)
# T2 construct: His6 with thrombin site (N); purchased Proqinase (Freiburg, Germany)
# Experiment: HER-2 Kinase Assay
# Type: biochemical
# Conditions: value in parentheses
# Protocol: The HER-2 kinase used was purified at Proqinase (Freiburg, Germany) from a construct that consisted of a fusion of GST (Glutathione-S-Transferase), HIS6-Thrombin and the nucleotides encoding amino acids 679 to 1255 of HER-2 (Accession Number M11730).
# A mixture of a 10× kinase reaction buffer (600 mM Hepes at pH 7.5, 30 mM Magnesium Chloride, 0.03 mM Sodium Vanadate and 500 μg/mL PEG 20,000), DTT (1.2 mM final from a 10 mM stock), APT (1 μM from a 10 mM stock), biotinylated polyGluTyr (1.5 ng/μL final from stock of 1 μg/μL) prepared by Upstate Biotechnologies, Lake Placid, N.Y.), Manganese Chloride (3 mM final from a 1 M stock), γ-^33P-ATP (10 μCl/μL stock) and water (70 μL/well) was added to each well of a Streptavidin Flashplate (Cat. # SMP103, NEN, Boston, Mass.).
# Test compound stock (1 μL) was added to the appropriate wells. Diluted GSTHER2 kinase (6.7 ng/μL diluted into 50 mM Tris-HCl at pH 8.0 and 0.1% bovine serum albumin) (30 μL) was added (total volume of 200 ng/well) to initiate the reactions.
# The reaction plates were incubated at 30° C. for 1 hr. The reaction was terminated by aspirating the reaction mixture from the plate wells and washing the wells three times with a 1×PBS stop buffer (300 μL) and 100 mM EDTA. After the final wash, the same stop buffer (200 μL) was again added to the wells. The plates were then sealed and read on the TopCount scintillation counter.
# The Her-2 inhibition values were derived according to the procedure described in Example 164 and are shown as percent in Table 4 at a test concentration of 1 μM. For those compounds with an IC50, the IC50 value in μM is shown in parentheses. For compounds with multiple test values, each value represents a separate assay result.
row,Compound,IC50
1,"4-oxo-5-(4-phenoxy-phenyl)-4,5-dihydro-3H-1-thia-3,5,6,8-tetraaza-acenaphthylene-2-carboxylic acid (4-morpholin-4-ylmethyl-3-trifluoromethoxy-phenyl)-amide [Cpd 240]",227 nM
